Assay results: article PMC11404609, “Gut microbiota-mediated C-sulfonate metabolism impairs the bioavailability and anti-cholestatic efficacy of andrographolide” (Gut Microbes, 2024)

What was measured:
[1] = test system: FXR downstream bile acid transporters; assay: Expression of FXR downstream bile acid transporters in liver (qPCR, Western blot); type: in vivo, mice; conditions: AP 200 mg/kg i.p.
Protocol: (§1) Total RNA from frozen livers of Vehicle, AP (200 mg/kg, i.p.), ANIT (50 mg/kg), and ANIT+AP (200 mg/kg, i.p.) groups was extracted using the Animal Total RNA Isolation Kit (FOREGENE, China). cDNA was synthesized using a Color Reverse Transcription Kit (EZBioscience, Roseville, CA, USA). qPCR was performed using SYBR green/Rox qPCR master mix (EZBioscience, Roseville, CA, USA), according to the manufacturer’s instruction. The expression of target genes was normalized to β-actin, and fold changes were calculated using 2^–ΔΔCT method. For bacterial identification, genomic DNA of fecal flora was isolated using the TIANamp Stool DNA Kit (TIANGEN, Beijing, China) and qPCR was performed. The relative abundance and expression of Desulfovibrio spp., D. piger and APS reductase were normalized to the amounts of total bacteria (16S). All primers were synthesized by Tsingke Biotechnology Co., Ltd. (Beijing, China) and were listed in Supplementary Table S1.
Liver tissue from Vehicle, AP (200 mg/kg, i.p.), ANIT (50 mg/kg), and ANIT+AP (200 mg/kg, i.p.) groups was homogenized in RIPA buffer (Thermo Scientific). […] The collected supernatant was quantified using BCA protein assay kit (Epizyme). […] To visualize the protein bands, the membrane was reacted with Immobilon Forte Western HRP (Millipore) substrate solution for 2 min and analyzed using Tanon5200 imager. […]

[2] = test system: NF-κB and JNK/MAPK pathways; assay: RNA sequencing of liver: NF-κB and JNK/MAPK pathway genes; type: in vivo, mice; conditions: ANIT+AP (200 mg/kg, i.p.) vs ANIT
Protocol: (§2) RNA in liver tissue was isolated from mice treated with ANIT and ANIT+AP (200 mg/kg, i.p.) and purified by TRIzol (Invitrogen, CA). The isolated RNA was quantified using Qubit 2.0 (Thermo Fisher Scientific, USA) following the manufacturer’s protocol. Libraries were prepared using the NEBNext® UltraTM RNA Library Prep Kit for Illumina® (NEB, USA) and sequenced on a Novaseq 6000 (Illumina, USA) at Novogene’s deep sequencing facility. Mapped reads from each sample were assembled using StringTie (v1.3.3b) in a reference-based approach, and featureCounts was used to quantify mapped reads. Differential expression analysis of two conditions/groups was performed using the DESeq2 R package (1.20.0).

FXR = FXR expression in liver (RNA sequencing, qPCR, Western blot); type: in vivo, mice
Protocol: as §2
as §1, with “The relative abundance and expression of Desulfovibrio spp., D. piger and APS reductase were normalized to the amounts of total bacteria (16S). All primers were synthesized by Tsingke Biotechnology Co., Ltd. (Beijing, China) and were listed in Supplementary Table S1.” left out

[3] = Tissue distribution of AP and APM in rats; type: in vivo; conditions: ABX-treated rats vs Control, AP 120 mg/kg oral
Protocol: Control and ABX rats were orally administered a single dose of AP at 120 mg/kg. Control, ABX and germ-free C57BL/6J mice were orally administered a single dose of AP at 100 mg/kg. After 90 min of AP administration, all animals were euthanized, and blood and tissue samples were collected for subsequent analysis.
An ACQUITY^TM UPLC-MS/MS system equipped with an ACQUITY^TM UPLC BEH C18 Column (50 × 2.1 mm I.D., 1.7 μm, Waters, Milford, MA, USA) was utilized for the quantification of AP and APM as previously described.[47] Briefly, the detection samples (50 μL) were mixed with 50 μL of IS (50 ng/mL). AP and APM were extracted by 400 μL cold methanol. Supernatants were dried under nitrogen stream. Then, the residue was dissolved with 50% methanol in water, centrifuged for 30 min at 13,000 rpm, and 10 µL of the supernatant was subjected to UPLC-MS/MS analysis. The mobile phases consisted of eluent A (water) and eluent B (methanol) with a gradient elution as follows: 0–0.8 min, 10% B; 0.8–1.2 min, 10–90% B; 1.2–5.0 min, 90% B; 5.0–5.5 min, 90–10% B; 5.5–7.0 min, 10% B. The flow rate was 0.3 mL/min and the injection volume of all samples was 10 μL. The quantification of AP, APM and IS was performed by UPLC-MS/MS using an MRM method with the transitions of m/z 349.1→m/z 287.2 for AP, m/z 413.2→m/z 287.2 for APM, m/z 269→m/z 133 for IS.
AP was administered intravenously and orally to detect the production of the C-sulfonate metabolite APM. In tissue distribution experiment, rats were given AP intravenously (24 mg/kg) or orally (120 mg/kg), while mice received AP intravenously (20 mg/kg) or orally (100 mg/kg). After a 90-minute interval, the animals were sacrificed, and their liver, kidneys, small intestine, and colon were collected for analysis. In pharmacokinetic studies, rats were administered 24 mg/kg of AP intravenously or 120 mg/kg of AP by oral gavage. Blood samples were collected at predetermined time intervals (0, 5, 10, 20, 30, 40, 60, 90, 120, 180, 240, 360, and 480 min), as described, to detect the content of AP and APM by UPLC-MS/MS.

- levels of AP in plasma and tissues [3]: elevated levels
SMILES: C=C1CC[C@@H]2[C@](C)(CO)[C@H](O)CC[C@@]2(C)[C@@H]1C/C=C1/C(=O)OC[C@H]1O [AP, Andrographolide]
- expression of FXR downstream bile acid transporters (Mrp2, Mrp3, Mrp4, Oatp1, and Ntcp, except for Bsep, Ost-α and Ost-β) [1]: heightened the expression
- clustering of NF-κB pathway genes and JNK/MAPK pathway genes [2]: no significant differences
- expression of Fxr (Nr1h4) by RNA-sequencing (FXR; ANIT+AP (200 mg/kg, i.p.) vs ANIT): significant upregulation
- FXR expression by qPCR and Western blot (FXR; after AP treatment (200 mg/kg, i.p.)): upregulation of FXR expression
